This is an account of results in PubChem BioAssay (NCI).

Some test systems named below: A549 NSCLC; DU-145 prostate; HCT-15 colon; HOP-62 NSCLC; HT29 colon; MALME-3M melanoma; SK-MEL-2 melanoma; SN12C renal; SNB-75 CNS; SR leukemia.
What all share (experiment): NCI anticancer screen, dose series, 48 h

Structures are written as SMILES.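 1) Cells in 96-well plates. 2) Compound, 48 h, 5 concentrations. 3) Linear interpolation between surrounding doses. 4) Unreached endpoint = highest concentration. Abbreviation: GI50, concentration required for 50% inhibition of growth. The concentration for full growth arrest is given as TGI.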 Where only a bound is given, the exact number is not on record here.

`CC(=C/c1ccccc1)/C=C1/NC(=S)N(/C=C2\C(=O)Oc3ccccc3C2=O)C1=O`: the TGI in the assay on A549 NSCLC, with DU-145 prostate, in the assay on HCT-15 colon, in the assay with HOP-62 NSCLC, in the assay on HT29 colon and with MALME-3M melanoma was more than 100 µM throughout. In addition, the TGI with SK-MEL-2 melanoma, in the assay with SN12C renal, in the assay on SNB-75 CNS and in the assay on SR leukemia was more than 100 µM in each case. Moreover, the GI50 with HT29 colon and in the assay on MALME-3M melanoma was more than 100 µM throughout.

Take `Cc1cc(I)cc(CN(C)CCCN2CCN(C)CC2)c1O`: the GI50 is 36 µM in the assay with A549 NSCLC; 75 µM in the assay on DU-145 prostate; 21.1 µM in the assay with HCT-15 colon; 17 µM in the assay with HOP-62 NSCLC; 13.7 µM in the assay on HT29 colon; 19.9 µM in the assay on MALME-3M melanoma. In addition, the GI50 is 22.3 µM with SK-MEL-2 melanoma, more than 94.8 µM in the assay on SN12C renal, 31.5 µM with SNB-75 CNS and 20.1 µM in the assay on SR leukemia. Also, the TGI with A549 NSCLC was more than 100 µM; in the assay with DU-145 prostate, more than 100 µM; with HCT-15 colon, 59 µM; in the assay on HOP-62 NSCLC it was 36.3 µM; with HT29 colon, 41.2 µM; in the assay with MALME-3M melanoma, 36.2 µM. Moreover, the TGI was 46.1 µM in the assay on SK-MEL-2 melanoma, more than 100 µM with SN12C renal, more than 100 µM with SNB-75 CNS and more than 55.1 µM in the assay with SR leukemia.

As for `CCN(Cc1c(Cl)cccc1Cl)c1ccc(CO)c(Cl)c1`, the GI50 in the assay on A549 NSCLC was 3.35 µM; with DU-145 prostate, 14.4 µM; in the assay on HCT-15 colon, 10.4 µM; in the assay with HOP-62 NSCLC it was 2.15 µM; in the assay with HT29 colon, 2.43 µM; in the assay on MALME-3M melanoma it was 12.6 µM. Moreover, the GI50 in the assay with SK-MEL-2 melanoma was 0.795 µM; in the assay with SN12C renal, 11.7 µM; with SNB-75 CNS, 11 µM; in the assay with SR leukemia it was 12.8 µM. Moreover, the TGI in the assay on A549 NSCLC worked out at 20.6 µM; in the assay on DU-145 prostate, 27.9 µM; in the assay on HCT-15 colon, 23.5 µM; in the assay on HOP-62 NSCLC it was 21.2 µM; in the assay with HT29 colon it was 15.3 µM; in the assay on MALME-3M melanoma, 27.2 µM. The TGI in the assay on SK-MEL-2 melanoma turned out to be 13.4 µM; in the assay with SN12C renal, 24 µM; in the assay with SNB-75 CNS, 25.3 µM; in the assay with SR leukemia, 36.7 µM.

For `Cc1ccc(-c2cc(O)c(-c3ccc(C)cc3C)cc2O)c(C)c1`, the GI50 in the assay with A549 NSCLC is 3.8 µM; with DU-145 prostate, 11.2 µM; in the assay on HCT-15 colon, 0.54 µM; in the assay on HOP-62 NSCLC, 11.2 µM; in the assay with HT29 colon, 4.73 µM; in the assay with MALME-3M melanoma, 12.9 µM. In addition, the GI50 is 15.4 µM with SK-MEL-2 melanoma, 5.38 µM in the assay with SN12C renal, 5.46 µM with SNB-75 CNS and 3.57 µM in the assay with SR leukemia. Besides, the TGI with A549 NSCLC was 21.6 µM; in the assay on DU-145 prostate it was 28.2 µM; in the assay on HCT-15 colon it was 18.9 µM; in the assay with HOP-62 NSCLC, 25.9 µM; with HT29 colon, 17.1 µM; in the assay on MALME-3M melanoma, 28.2 µM. Also, the TGI in the assay with SK-MEL-2 melanoma was 30.1 µM; in the assay with SN12C renal, 18.8 µM; with SNB-75 CNS, 19.7 µM; in the assay with SR leukemia it was 74.9 µM.

On to `O=C1OCC2=C1C(c1ccccc1)c1cc3c(cc1N2CCO)OCCO3` (configuration not stated), for which the GI50 in the assay with A549 NSCLC was 0.62 µM; with DU-145 prostate, 0.304 µM; with HCT-15 colon it was 0.518 µM; in the assay on HOP-62 NSCLC, 0.763 µM; with HT29 colon, 0.168 µM; in the assay on MALME-3M melanoma it was more than 50 µM. In addition, the GI50 in the assay on SK-MEL-2 melanoma is 0.156 µM; with SN12C renal, 4.46 µM; in the assay with SNB-75 CNS, 0.121 µM; with SR leukemia it was 0.14 µM. Also, the TGI in the assay on A549 NSCLC is more than 40.1 µM; with DU-145 prostate, 2.73 µM; in the assay on HCT-15 colon, more than 50 µM; in the assay on HOP-62 NSCLC, more than 50 µM; in the assay on HT29 colon, 1.61 µM; in the assay on MALME-3M melanoma, more than 50 µM. For the same compound, the TGI with SK-MEL-2 melanoma is 0.432 µM; with SN12C renal it was more than 50 µM; with SNB-75 CNS, 0.427 µM; in the assay on SR leukemia, 2.57 µM.

As to `Cc1ccc(Sc2cc3c(oc2=O)-c2ccccc2OC3O)cc1` (configuration not stated), the GI50 with A549 NSCLC is 28.5 µM; in the assay on DU-145 prostate, 21.8 µM; in the assay with HCT-15 colon it was 28.3 µM; with HOP-62 NSCLC it was 22.5 µM; in the assay on HT29 colon it was 30.9 µM; with MALME-3M melanoma, 25 µM. The GI50 in the assay with SK-MEL-2 melanoma was 22.1 µM; in the assay on SN12C renal, 29.4 µM; with SNB-75 CNS it was 30.5 µM; in the assay on SR leukemia, 18.4 µM. Also, the TGI in the assay with A549 NSCLC is 74.8 µM; in the assay with DU-145 prostate it was 45.2 µM; in the assay with HCT-15 colon it was 76.3 µM; in the assay on HOP-62 NSCLC, 44.7 µM; with HT29 colon, more than 100 µM; in the assay with MALME-3M melanoma, 49.2 µM. Moreover, the TGI in the assay on SK-MEL-2 melanoma was 47.7 µM; with SN12C renal it was 73.3 µM; with SNB-75 CNS, 81.2 µM; in the assay on SR leukemia, 46.3 µM.

With `CCN(CC)C(=S)[S][Bi]([S]C(=S)N(CC)CC)[S]C(=S)N(CC)CC`, the GI50 was 1.74 µM with A549 NSCLC; 1.28 µM with DU-145 prostate; 0.164 µM in the assay on HCT-15 colon; 1.9 µM with HOP-62 NSCLC; 0.052 µM in the assay on HT29 colon; 0.168 µM with MALME-3M melanoma. Also, the GI50 is 0.3 µM in the assay with SK-MEL-2 melanoma, 0.264 µM with SN12C renal, 0.213 µM with SNB-75 CNS and 0.0353 µM in the assay with SR leukemia. Besides, the TGI was 3.27 µM in the assay on A549 NSCLC; 2.59 µM in the assay on DU-145 prostate; 0.348 µM with HCT-15 colon; 3.39 µM in the assay on HOP-62 NSCLC; 0.229 µM in the assay on HT29 colon; 0.317 µM in the assay on MALME-3M melanoma. The TGI was 0.774 µM in the assay with SK-MEL-2 melanoma, 0.696 µM in the assay on SN12C renal, 0.527 µM with SNB-75 CNS and 23.4 µM with SR leukemia.

Consider `O=C(CCc1ccc(O)cc1)N/N=C/c1cc(Br)ccc1O`, for which the GI50 in the assay on A549 NSCLC is 4.03 µM; in the assay on DU-145 prostate it was 3.4 µM; with HCT-15 colon, 2 µM; with HOP-62 NSCLC, 6.76 µM; in the assay on HT29 colon, 23.7 µM; in the assay with MALME-3M melanoma, 4.01 µM. Further, the GI50 in the assay on SK-MEL-2 melanoma is 5.28 µM; in the assay with SN12C renal, 4.76 µM; in the assay with SNB-75 CNS, 5.25 µM; with SR leukemia, 2.52 µM. Also, the TGI in the assay on A549 NSCLC is more than 100 µM; in the assay on DU-145 prostate it was more than 100 µM; with HCT-15 colon, more than 100 µM; in the assay on HOP-62 NSCLC it was 57.6 µM; with HT29 colon it was 99.4 µM; with MALME-3M melanoma, 28.3 µM. For the same compound, the TGI is 38.3 µM in the assay on SK-MEL-2 melanoma, 73.6 µM in the assay with SN12C renal, more than 100 µM in the assay on SNB-75 CNS and 9.66 µM in the assay with SR leukemia.
